Patent US12594343B2, “Treatment of cancer” (INNATE PHARMA, priority 2020, dated 2026)

How the values were obtained:
[1] = tested on: advanced or metastatic urothelial tract tumors; details: cited from earlier work
[2] = tested on: modified Nectin-4 lacking the Ig-like V domain (the C1C2 construct); type: binding, human; details: concluded from wild-type versus C1C2 binding
Method: (§1) The characterization of the binding of the antibodies on Nectin-4 domains was performed by flow cytometry using cells made to express the wild-type human Nectin-4 protein and cells made to express a modified Nectin-4 having the Ig-like C2 type 1 and the Ig-like C2 type 2 domains and lacking the Ig-like V domain (the C1C2 construct). The latter protein additionally bears a V5 tag for flow cytometry cell sorting, and cells were used as Nectin4-C1C2-V5 sorted cells.
(§2) Wild-type Nectin-4 (the CI.3C8 cell line), a C2 construct (containing the Ig-like C2 type 2 domain and lacking both the V and the C1 domains) and the C1C2 construct allow the determination of whether test antibodies bind to the V or different C domains. Briefly, nucleic acid sequences encoding different human Nectin-4 domains were amplified by PCR. The PCR products were inserted into an expression vector at appropriate restriction sites. A leader peptide, and for C1C2 and C2 an N-terminal V5 tag having the amino acid sequence […] (SEQ ID NO: 13), were added, and expression at the surface of cells was confirmed by flow cytometry. The amino acid sequences of the resulting different human Nectin-4 domain fragment-containing proteins are shown below (V5 tag underlined). The vectors were then transfected into the CHO cell line to obtain stable clones expressing the different Nectin-4 domain proteins at the cell surface.

[3] = biological target: T1, modified Nectin-4 lacking the Ig-like V domain (the C1C2 construct) (Homo sapiens, UniProt Q96NY8); type: binding; details: flow cytometry, CHO cells
T1 construct: having the Ig-like C2 type 1 and the Ig-like C2 type 2 domains and lacking the Ig-like V domain (the C1C2 construct); expressed in transfected cells
T1 sequence (Q96NY8 148-510): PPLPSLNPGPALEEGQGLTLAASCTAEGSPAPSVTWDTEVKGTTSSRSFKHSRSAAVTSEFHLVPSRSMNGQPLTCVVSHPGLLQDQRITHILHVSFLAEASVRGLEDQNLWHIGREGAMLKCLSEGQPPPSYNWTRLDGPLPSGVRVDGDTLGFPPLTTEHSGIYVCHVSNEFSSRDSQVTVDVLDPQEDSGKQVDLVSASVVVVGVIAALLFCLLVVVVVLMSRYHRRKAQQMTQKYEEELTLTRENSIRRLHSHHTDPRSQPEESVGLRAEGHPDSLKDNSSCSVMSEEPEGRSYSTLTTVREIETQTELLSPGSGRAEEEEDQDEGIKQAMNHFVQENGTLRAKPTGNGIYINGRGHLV
Method: as §1, §2

[4] = biological target: T2, wild-type human Nectin-4 protein (Homo sapiens, UniProt Q96NY8); assay: Flow cytometry binding to CHO cells expressing wild-type Nectin-4
T2 construct: expressed in transfected cells
T2 sequence (Q96NY8 32-510): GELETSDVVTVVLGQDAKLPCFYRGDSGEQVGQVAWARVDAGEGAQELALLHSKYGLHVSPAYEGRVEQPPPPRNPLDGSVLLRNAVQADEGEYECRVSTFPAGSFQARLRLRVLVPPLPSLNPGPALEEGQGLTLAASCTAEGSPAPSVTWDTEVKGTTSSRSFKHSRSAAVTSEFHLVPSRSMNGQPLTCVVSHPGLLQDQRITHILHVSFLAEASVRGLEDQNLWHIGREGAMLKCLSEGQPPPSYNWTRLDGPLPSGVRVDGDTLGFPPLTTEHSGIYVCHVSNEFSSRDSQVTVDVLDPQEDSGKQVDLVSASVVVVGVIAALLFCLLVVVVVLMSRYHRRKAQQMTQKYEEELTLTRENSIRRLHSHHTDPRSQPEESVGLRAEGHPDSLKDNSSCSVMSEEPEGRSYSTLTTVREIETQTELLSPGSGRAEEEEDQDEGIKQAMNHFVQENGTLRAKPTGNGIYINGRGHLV
Method: as §1, §2

[5] = tested on: SUM185 cells; assay: Fab-ZAP internalization assay (cell viability, CTG); type: cell-based, human; details: SUM185 (higher Nectin-4)
Method: (§3) The ability of the anti-nectin-4 antibodies to induce nectin-4 internalization was assessed on SUM190 cell lines expressing lower levels of nectin-4 and in SUM185 cells expressing higher levels of Nectin-4. […] Internalization was indirectly determined by using the Fab-ZAP human Internalization Kit (Advanced Targeting Systems) to allow the anti-Nectin-4 antibodies to target and eliminate Nectin-4 expressing cells, with measurement of cell viability using the CTG substrate (CellTiter-Glo® Luminescent Cell Viability Assay (Promega). Fab-ZAP is a chemical conjugate of goat anti-human monovalent antibody and the ribosome-inactivating protein, saporin. The antibodies used are affinity-purified polyclonal antibodies against both the heavy and light chain of human IgG. This secondary conjugate is used to evaluate the potential of a primary antibody to internalize.
(§4) Briefly, a concentration range of the antibodies or the control items was incubated on top of the SUM190 or SUM185 cells. After the incubation, the non-bound antibodies were washed away and Fab-ZAP was added on top of the cells. The newly formed complexes (anti-nectin-4 antibody+Fab-ZAP) internalized into the cells where the Saporin was released and stopped the protein synthesis leading to cell death. The internalization capability of the antibody was indirectly determined by the cells viability: the more efficient was the cell killing; the better was the internalization capability of the antibody.

[6] = tested on: SUM190 cells; assay: as above; type: cell-based, human; details: SUM190 (lower Nectin-4)
Method: as §3, §4

[7] = tested on: UC; details: cited from earlier work
[8] = tested on: pancreatic cancer; details: 349 patients; cited from earlier work
[9] = tested on: SUM190 tumor cells; assay: ADC-induced tumor cell death, Cell Titer Glo viability at day 6; type: cell-based, human
Method: The resulting ADCs were tested for their ability to induce death of Nectin-4/Her2 expressing SUM190 and SUM185 tumor cells of Example 1. Briefly, cells were plated cells in 96 well plates (V=80 μl). N4 ADC1 and Her2 ADC1 or human IgG1-isotype control (IC)-linker-toxin or medium (conc. 5×) were tested in 1:2 serial dilution starting from (530 nM to 30 nM) and in a 1:5 serial dilution (7 nM to 7×10−2 nM) for the N4 ADC1 and isotype control. N4 ADC2 and isotype control were tested in 1:10 serial dilution starting from (530 nM to 5.3 10-2). The ADCs' ability to cause cell death was determined by assessing confluence using Incucyte S3-2 apparatus; viability at day 6 after treatment was determined using the Cell Titer Glo™ (CTG) assay with an Enspire2 apparatus. IC50 values for each ADC was determined using Luminescent Cell Viability at day 6 data with GraphPad Prism8. Experiments were repeated twice.
The anti-Nectin-4 camptothecin-analogue ADCs used were the N4 ADC1 as shown in Example 2. The anti-Her2 ADCs were also those used in Example 2 (Her2 ADC1). The ADC's ability to cause cell death was determined by assessing confluence and determining viability of SUM190 cells at day 6 as described in Example 2.

Q: With `CC[C@@]1(O)C(=O)OCc2c1cc1n(c2=O)Cc2cc3c([N+](=O)[O-])cccc3nc2-1` [RFS2000] as the molecule, how does the “activity in patients failing prior chemotherapy” value [1] read?
A: did not exert significant activity

Q: With “enfortumab: anti-Nectin-4 antibody, VH and VL of SEQ ID NOS: 3 and 4 as human IgG1 isotype” as the molecule, how does the Nectin-4 domain bound [2] read?
A: within the V domain

Q: And the “binding to C1C2 construct lacking the V domain” value [3]?
A: lost binding

Q: And the “binding to whole Nectin-4 protein” value [4]?
A: bound to the whole Nectin-4 protein

Q: What about the “ability to induce internalization” value [5] of the same molecule?
A: highly potent in the ability to induce of internalization

Q: What about the “ability to induce internalization” value [6] of the same molecule?
A: highly potent in the ability to induce of internalization

Q: For enfortumab vedotin, which “CR (complete response rate)” value ([7]; UC patients) is on record?
A: 12%

Q: And the “ORR (objective response rate)” value ([7]; UC patients)?
A: 44%

Q: And the “discontinuation due to progressive disease as assessed by RECIST” value ([7]; UC patients)?
A: 48%

Q: What about the “discontinuation due to progressive disease by clinical symptoms” value ([7]; UC patients) of the same molecule?
A: 5%

Q: What about the “patients that discontinued experienced adverse events, notably neuropathy” value [7] of the same molecule?
A: 18%

Q: With `CC[C@@]1(O)C(=O)OCc2c1cc1n(c2=O)Cc2c-1nc1cc(F)c(C)c3c1c2[C@@H](N)CC3` [exatecan] as the molecule, how does the “efficacy of exatecan in addition to gemcitabine versus gemcitabine alone” value [8] read?
A: not superior in efficacy to gemcitabine alone

B1: N4 ADC2: Anti-Nectin-4 antibody conjugated to a second camptothecin (SN-38) containing linker (conjugate)
VH: QVQLKQSGPGLVQPSQSLSITCTVSGFSLTNYGVHWVRQSPGKGLEWLGVIWSGGSTDYNAAFISRLSISKDTSKSQVFFKMNSLQADDTAIYYCARELIHAMDNWGQGTSVTVSS
VL: DIQMTQSPASLSVSVGETVTITCRASENIYSNLAWYQQKQGNSPQLLVFAATNLADGVPSRFSGSGSGTQYSLKINSLQSEDFGTYYCQHFWGTPTFGGGTKLEIK
Q: Which “potency in causing tumor cell death (in words)” value [9] does the source give for B1 here?
A: good potency

B2: N41: anti-Nectin-4 antibody, VH and VL of SEQ ID NOS: 9 and 10 as human IgG1 isotype (antibody, listed as Mus musculus, V domains shown)
VH: QVQLKQSGPGLVQPSQSLSITCTVSGFSLTNYGVHWVRQSPGKGLEWLGVIWSGGSTDYNAAFISRLSISKDTSKSQVFFKMNSLQADDTAIYYCARELIHAMDNWGQGTSVTVSS
VL: DIQMTQSPASLSVSVGETVTITCRASENIYSNLAWYQQKQGNSPQLLVFAATNLADGVPSRFSGSGSGTQYSLKINSLQSEDFGTYYCQHFWGTPTFGGGTKLEIK
modifications: human IgG1 constant regions
Q: Which results are given for B2?
A: Nectin-4 domain bound [2]: within the V domain; binding to C1C2 construct lacking the V domain [3]: lost binding; binding to whole Nectin-4 protein [4]: bound to the whole Nectin-4 protein; ability to induce internalization [5]: highly potent in the ability to induce of internalization; ability to induce internalization [6]: highly potent in the ability to induce of internalization
